For the assay, the target named is T1, KRas-G12D (Homo sapiens, UniProt P01116, G12D).
T1 construct: insert the HiBiT tag onto the N-terminus of one or more of the endogenous KRas alleles; host or cells: AsPC-1 HiBiT-KRasG12D knock-in clone (one tagged allele, two untagged KRasG12D alleles)
Nature of the assay: HiBiT Degradation Assay (G12D), AsPC-1 HiBiT-KRasG12D cells, 24 hr. It counts as cell-based. To be noted: for Dmax: ASPC1, AsPC-1 cells, maximum degradation observed; for DC50: AsPC-1 cells. The procedure, abridged: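 Degradation was read after 24 hr compound exposure (0.5% DMSO, 37° C) by Nano-Glo HiBiT lytic luminescence in AsPC-1 cells carrying a HiBiT tag on one of three KRasG12D alleles. Signal relative to DMSO gave DC50 and Dmax by 4-parameter fit; alamar blue fluorescence monitored cytotoxicity.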
(In general: HiBiT is a short tag that completes a luciferase, so light tracks the accessible tagged protein.)

T1 sequence (P01116 1-188 isoform P01116-2 G12D): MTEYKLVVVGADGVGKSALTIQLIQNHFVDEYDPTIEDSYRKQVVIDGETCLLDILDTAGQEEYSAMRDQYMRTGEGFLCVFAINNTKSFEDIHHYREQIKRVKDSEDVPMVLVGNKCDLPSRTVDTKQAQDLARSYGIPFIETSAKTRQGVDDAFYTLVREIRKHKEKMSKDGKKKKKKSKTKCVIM

The Dmax is the greatest extent of degradation seen. One may read the DC50 as the midpoint of the concentration-degradation curve. Higher therefore signals degradation only at high concentration. Consider `C#Cc1c(F)ccc2cc(O)cc(-c3ncc4c(N5CC6CCC(C5)N6)nc(OCCN5CCC(CN6CCN(CC7CCN(c8ccc9c(c8F)CN(C8CCC(=O)NC8=O)C9=O)CC7)C(C)(C)C6)CC5)nc4c3F)c12` (centres unmarked) [Compound 169, 3-{5-[4-({4-[(1-{2-[(4-{3,8-diazabicyclo[3.2.1]octan-3-yl}-7-(8-ethynyl-7-fluoro-3-hydroxynaphthalen-1-yl)-8-fluoropyrido[4,3-d]pyrimidin-2-yl)oxy]ethyl}piperidin-4-yl)methyl]-2,2-dimethylpiperazin-1-yl}methyl)piperidin-1-yl]-4-fluoro-1-oxo-2,3-dihydro-1H-isoindol-2-yl}piperidine-2,6-dione], for which the Dmax was > 70% and the 50% degradation concentration (DC50) is < 5.1 µM.

Turning to `C#Cc1c(F)ccc2cc(O)cc(-c3ncc4c(N5CC6CCC(C5)N6)nc(OCCN5CCC(CN6CCC(CC7CCN(c8cc(C)c9c(c8F)CN(C8CCC(=O)NC8=O)C9=O)CC7)CC6)CC5)nc4c3F)c12` (centres unmarked) [Compound 170, 3-{5-[4-({1-[(1-{2-[(4-{3,8-diazabicyclo[3.2.1]octan-3-yl}-7-(8-ethynyl-7-fluoro-3-hydroxynaphthalen-1-yl)-8-fluoropyrido[4,3-d]pyrimidin-2-yl)oxy]ethyl}piperidin-4-yl)methyl]piperidin-4-yl}methyl)piperidin-1-yl]-4-fluoro-7-methyl-1-oxo-2,3-dihydro-1H-isoindol-2-yl}piperidine-2,6-dione], the Dmax is > 70% and the half-maximal degradation concentration (DC50) was < 5.1 µM.

Consider `CCc1c(F)ccc2cc(O)cc(-c3ncc4c(N5CC6CCC(C5)N6)nc(OCCN5CCC6(CC5)CCN(CC5CCN(c7ccc8c(c7)n(C)c(=O)n8C7CCC(=O)NC7=O)CC5)CC6)nc4c3F)c12` (centres unmarked) [Compound 171, 3-(5-{4-[(9-{2-[(4-{3,8-diazabicyclo[3.2.1]octan-3-yl}-7-(8-ethyl-7-fluoro-3-hydroxynaphthalen-1-yl)-8-fluoropyrido[4,3-d]pyrimidin-2-yl)oxy]ethyl}-3,9-diazaspiro[5.5]undecan-3-yl)methyl]piperidin-1-yl}-3-methyl-2-oxo-2,3-dihydro-1H-1,3-benzodiazol-1-yl)piperidine-2,6-dione], for which the Dmax was > 70% and the half-maximal degradation concentration (DC50) is < 5.1 µM.

On to `CCc1c(F)ccc2cc(O)cc(-c3ncc4c(N5CC6CCC(C5)N6)nc(OCCN5CCC(CC6CCN(CC7CCN(c8cccc9c8n(C)c(=O)n9C8CCC(=O)NC8=O)CC7)CC6)CC5)nc4c3F)c12` (centres unmarked) [Compound 172, 3-{4-[4-({4-[(1-{2-[(4-{3,8-diazabicyclo[3.2.1]octan-3-yl}-7-(8-ethyl-7-fluoro-3-hydroxynaphthalen-1-yl)-8-fluoropyrido[4,3-d]pyrimidin-2-yl)oxy]ethyl}piperidin-4-yl)methyl]piperidin-1-yl}methyl)piperidin-1-yl]-3-methyl-2-oxo-2,3-dihydro-1H-1,3-benzodiazol-1-yl}piperidine-2,6-dione], for which the Dmax was > 70% and the DC50 was < 5.1 µM.

Regarding `C#Cc1c(F)ccc2cc(O)cc(-c3ncc4c(N5CC6CCC(C5)N6)nc(OCCN5CCN(CC6CCN(CC7CCN(c8ccc9c(c8)n(C)c(=O)n9C8CCC(=O)NC8=O)CC7)CC6)CC5)nc4c3F)c12` (centres unmarked) [Compound 173, 3-{5-[4-({4-[(4-{2-[(4-{3,8-diazabicyclo[3.2.1]octan-3-yl}-7-(8-ethynyl-7-fluoro-3-hydroxynaphthalen-1-yl)-8-fluoropyrido[4,3-d]pyrimidin-2-yl)oxy]ethyl}piperazin-1-yl)methyl]piperidin-1-yl}methyl)piperidin-1-yl]-3-methyl-2-oxo-2,3-dihydro-1H-1,3-benzodiazol-1-yl}piperidine-2,6-dione], the Dmax was > 70% and the DC50 is < 5.1 µM.

In the case of `C#Cc1c(F)ccc2cc(O)cc(-c3ncc4c(N5CC6CCC(C5)N6)nc(OCCN5CCN(CC6CCN(CC7CCN(c8ccc9c(c8F)CN(C8CCC(=O)NC8=O)C9=O)CC7)CC6)CC5(C)C)nc4c3F)c12` (centres unmarked) [Compound 174, 3-{5-[4-({4-[(4-{2-[(4-{3,8-diazabicyclo[3.2.1]octan-3-yl}-7-(8-ethynyl-7-fluoro-3-hydroxynaphthalen-1-yl)-8-fluoropyrido[4,3-d]pyrimidin-2-yl)oxy]ethyl}-3,3-dimethylpiperazin-1-yl)methyl]piperidin-1-yl}methyl)piperidin-1-yl]-4-fluoro-1-oxo-2,3-dihydro-1H-isoindol-2-yl}piperidine-2,6-dione], the Dmax was > 70% and the DC50 is < 5.1 µM.

In the case of `C#Cc1c(F)ccc2cc(O)cc(-c3ncc4c(N5CC6CCC(C5)N6)nc(OCCN5CCC(CC6CCN(c7ccc8c(c7)n(C(C)C)c(=O)n8C7CCC(=O)NC7=O)CC6)CC5)nc4c3F)c12` (centres unmarked) [Compound 175, 3-(5-{4-[(1-{2-[(4-{3,8-diazabicyclo[3.2.1]octan-3-yl}-7-(8-ethynyl-7-fluoro-3-hydroxynaphthalen-1-yl)-8-fluoropyrido[4,3-d]pyrimidin-2-yl)oxy]ethyl}piperidin-4-yl)methyl]piperidin-1-yl}-2-oxo-3-(propan-2-yl)-2,3-dihydro-1H-1,3-benzodiazol-1-yl)piperidine-2,6-dione], the Dmax is > 70% and the DC50 was < 5.1 µM.

On to `C#Cc1c(F)ccc2cc(O)cc(-c3ncc4c(N5CC6CCC(C5)N6)nc(OC[C@@H]5CC[C@@H](CN6CCN(c7ccc8c(c7)n(C(C)C)c(=O)n8C7CCC(=O)NC7=O)CC6)N5C)nc4c3F)c12` (stereo partly drawn) [Compound 176, 3-[5-(4-{[(2S,5S)-5-{[(4-{3,8-diazabicyclo[3.2.1]octan-3-yl}-7-(8-ethynyl-7-fluoro-3-hydroxynaphthalen-1-yl)-8-fluoropyrido[4,3-d]pyrimidin-2-yl)oxy]methyl}-1-methylpyrrolidin-2-yl]methyl}piperazin-1-yl)-2-oxo-3-(propan-2-yl)-2,3-dihydro-1H-1,3-benzodiazol-1-yl]piperidine-2,6-dione], for which the Dmax is > 70% and the DC50 was < 5.1 µM.

With `CCc1c(F)ccc2cc(O)cc(-c3ncc4c(N5CC6CCC(C5)N6)nc(OC[C@@H]5C[C@@H](OC6CCN(CC7CCN(c8ccc9c(c8Cl)CN(C8CCC(=O)NC8=O)C9=O)CC7)CC6)CN5C)nc4c3F)c12` (stereo partly drawn) [Compound 177, 3-(4-chloro-5-{4-[(4-{[(3R,5S)-5-{[(4-{3,8-diazabicyclo[3.2.1]octan-3-yl}-7-(8-ethyl-7-fluoro-3-hydroxynaphthalen-1-yl)-8-fluoropyrido[4,3-d]pyrimidin-2-yl)oxy]methyl}-1-methylpyrrolidin-3-yl]oxy}piperidin-1-yl)methyl]piperidin-1-yl}-1-oxo-2,3-dihydro-1H-isoindol-2-yl)piperidine-2,6-dione], the greatest degradation seen (Dmax) was > 70% and the DC50 was < 5.1 µM.

Consider `CCc1c(F)ccc2cc(O)cc(-c3ncc4c(N5CC6CCC(C5)N6)nc(OC[C@@H]5C[C@@H](OC6CCN(CC7CCN(c8ccc9c(c8F)CN(C8CCC(=O)NC8=O)C9=O)CC7)CC6)CN5C)nc4c3F)c12` (stereo partly drawn) [Compound 178, 3-(5-{4-[(4-{[(3R,5S)-5-{[(4-{3,8-diazabicyclo[3.2.1]octan-3-yl}-7-(8-ethyl-7-fluoro-3-hydroxynaphthalen-1-yl)-8-fluoropyrido[4,3-d]pyrimidin-2-yl)oxy]methyl}-1-methylpyrrolidin-3-yl]oxy}piperidin-1-yl)methyl]piperidin-1-yl}-4-fluoro-1-oxo-2,3-dihydro-1H-isoindol-2-yl)piperidine-2,6-dione], for which the Dmax is > 70% and the DC50 is < 5.1 µM.

On to `CCc1c(F)ccc2cc(O)cc(-c3ncc4c(N5CC6CCC(C5)N6)nc(OCCN5CCC(C)(CC6CCN(CC7CCN(c8ccc9c(c8)n(C)c(=O)n9C8CCC(=O)NC8=O)CC7)CC6)CC5)nc4c3F)c12` (centres unmarked) [Compound 179, 3-{5-[4-({4-[(1-{2-[(4-{3,8-diazabicyclo[3.2.1]octan-3-yl}-7-(8-ethyl-7-fluoro-3-hydroxynaphthalen-1-yl)-8-fluoropyrido[4,3-d]pyrimidin-2-yl)oxy]ethyl}-4-methylpiperidin-4-yl)methyl]piperidin-1-yl}methyl)piperidin-1-yl]-3-methyl-2-oxo-2,3-dihydro-1H-1,3-benzodiazol-1-yl}piperidine-2,6-dione], for which the greatest degradation seen (Dmax) is > 70% and the DC50 was < 5.1 µM.

As for `CCc1c(F)ccc2cc(O)cc(-c3ncc4c(N5CC6CCC(C5)N6)nc(OCCN5CCC(C)(CN6CCN(CC7CCN(c8ccc9c(c8)n(C)c(=O)n9C8CCC(=O)NC8=O)CC7)CC6)CC5)nc4c3F)c12` (centres unmarked) [Compound 180, 3-{5-[4-({4-[(1-{2-[(4-{3,8-diazabicyclo[3.2.1]octan-3-yl}-7-(8-ethyl-7-fluoro-3-hydroxynaphthalen-1-yl)-8-fluoropyrido[4,3-d]pyrimidin-2-yl)oxy]ethyl}-4-methylpiperidin-4-yl)methyl]piperazin-1-yl}methyl)piperidin-1-yl]-3-methyl-2-oxo-2,3-dihydro-1H-1,3-benzodiazol-1-yl}piperidine-2,6-dione], the Dmax was > 70% and the DC50 is < 5.1 µM.

Turning to `CCc1c(F)ccc2cc(O)cc(-c3ncc4c(N5CC6CCC(C5)N6)nc(OCCN5CCC(F)(CN6CCN(CC7CCN(c8ccc9c(c8)n(C)c(=O)n9C8CCC(=O)NC8=O)CC7)CC6)CC5)nc4c3F)c12` (centres unmarked) [Compound 181, 3-{5-[4-({4-[(1-{2-[(4-{3,8-diazabicyclo[3.2.1]octan-3-yl}-7-(8-ethyl-7-fluoro-3-hydroxynaphthalen-1-yl)-8-fluoropyrido[4,3-d]pyrimidin-2-yl)oxy]ethyl}-4-fluoropiperidin-4-yl)methyl]piperazin-1-yl}methyl)piperidin-1-yl]-3-methyl-2-oxo-2,3-dihydro-1H-1,3-benzodiazol-1-yl}piperidine-2,6-dione], the greatest degradation seen (Dmax) is > 70% and the 50% degradation concentration (DC50) was < 5.1 µM.

Source of the values: patent US12448399B2, “Cereblon-based KRAS degrading PROTACs and uses related thereto” (Arvinas Operations, Inc., priority 2023, dated 2025).
